Test results from the supplement of paper PMC11061612.

Tests used:
[1] = tested on: Ca-Ski (Cervical Carcinoma); assay: combination Emax (second highest fraction inhibited in the dose matrix, 72 h); higher = more inhibition; extreme values may be limits of the assay
In short: (§1)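 Bliss excess equals the observed combination effect minus the expected value EA + EB − EA·EB, where EA and EB are the effects of each agent alone. Combination Emax is the second-highest inhibition within the matrix. Inhibition was scaled from CellTiter-Glo 2.0 luminescence, with 0 set by vehicle wells and 1 by blank wells, after 72 hours of two-drug dosing of cells plated in 1536-well plates.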

[2] = tested on: HCC1937 (Breast Carcinoma); assay: as above
In short: as §1

[3] = tested on: Ca-Ski (Cervical Carcinoma); assay: Bliss excess, mean over the matrix (fraction); higher = more synergy
In short: as §1

[4] = tested on: KMRC-1 (Kidney Carcinoma); assay: as above
In short: as §1

[5] = tested on: HCC1937 (Breast Carcinoma); assay: as above
In short: as §1

COLO-679 (Melanoma) = assay: as above
In short: as §1

[6] = tested on: NCI-H1838 (Lung Adenocarcinoma); assay: as above
In short: as §1

[7] = tested on: OE33 (Esophageal Adenocarcinoma); assay: as above
In short: as §1

[8] = tested on: MOLT-4 (T-Lymphoblastic Leukemia); assay: as above
In short: as §1

[9] = tested on: MV-4-11 (Acute Myeloid Leukemia); assay: as above
In short: as §1

[10] = tested on: SW982 (Other Solid Carcinomas); assay: as above
In short: as §1

[11] = tested on: ML-2 (Acute Myeloid Leukemia); assay: as above
In short: as §1

[12] = tested on: Mo-T (Other Blood Carcinomas); assay: as above
In short: as §1

[13] = tested on: KGN (Other Solid Carcinomas); assay: as above
In short: as §1

[14] = tested on: SW872 (Other Solid Carcinomas); assay: as above
In short: as §1

[15] = tested on: HCC2998 (Colorectal Carcinoma); assay: as above
In short: as §1

SK-N-AS (Neuroblastoma) = assay: as above
In short: as §1

[16] = tested on: NCI-H1092 (Small Cell Lung Carcinoma); assay: as above
In short: as §1

[17] = tested on: HAL-01 (B-Lymphoblastic Leukemia); assay: as above
In short: as §1

[18] = tested on: HCC1500 (Breast Carcinoma); assay: as above
In short: as §1

SMILES	combination Emax [1]	combination Emax [2]	Bliss excess [3]	Bliss excess [4]	Bliss excess [5]	Bliss excess (COLO-679 (Melanoma))	Bliss excess [6]	Bliss excess [7]	Bliss excess [8]	Bliss excess [9]	Bliss excess [10]	Bliss excess [11]	Bliss excess [12]	Bliss excess [13]	Bliss excess [14]	Bliss excess [15]	Bliss excess (SK-N-AS (Neuroblastoma))	Bliss excess [16]	Bliss excess [17]	Bliss excess [18]
COc1cccc(OCCCN)c1-c1cc(Nc2cnc(C#N)cn2)n[nH]1 [Prexasertib] + C[C@@H]1COCCN1C2=NC(=NC(=C2)C3(CC3)[S@](=N)(=O)C)C4=C5C=CNC5=NC=C4 [AZD6738] (first compound max 1 µM, 7x7, partner max 10 µM)	0.728	0.537	-0.0134	0.0101	-0.0129	-0.0836	-0.174	-0.0334	0.0087	-0.0356	-0.0406	-0.0361	-0.0463	-0.0399	0.01	0.0211	-0.011	-0.0568	-0.022	0.0568
CCN(CCO)CCCOc1ccc2c(Nc3cc(CC(=O)Nc4cccc(F)c4)[nH]n3)ncnc2c1 [AZD2811] + C[C@@H]1COCCN1C2=NC(=NC(=C2)C3(CC3)[S@](=N)(=O)C)C4=C5C=CNC5=NC=C4 [AZD6738] (first compound max 1 µM, 7x7, partner max 10 µM)	0.607	0.47	-0.0273	-0.042	-0.0972	-0.103	-0.0107	-0.0167	-0.0208	-0.0118	-0.0585	-0.0428	-0.0188	-0.0854	-0.0219	-0.0574	-0.0365	-0.0308	0.0306	-0.007
CN(C)CCCOc1ccc(-c2ccc3ncc4c(c3c2)n(C2CCOCC2)c(=O)n4C)cn1 [AZD0156] + CCN(CCO)CCCOc1ccc2c(Nc3cc(CC(=O)Nc4cccc(F)c4)[nH]n3)ncnc2c1 [AZD2811] (first compound max 1 µM, 7x7, partner max 1 µM)	0.274	0.159	0.008	-0.0251	-0.0387	-0.0093	-0.0122	-0.0173	0.0107	-0.0383	-0.0042	-0.0594	-0.0898	-0.0306	-0.0311	0.0314	-0.014	-0.0102	0.0135	-0.0563
CN(C)CCCOc1ccc(-c2ccc3ncc4c(c3c2)n(C2CCOCC2)c(=O)n4C)cn1 [AZD0156] + C=CCn1c(=O)c2cnc(Nc3ccc(N4CCN(C)CC4)cc3)nc2n1-c1cccc(C(C)(C)O)n1 [AZD1775] (first compound max 1 µM, partner max 1 µM)	0.7	0.475	-0.0291	-0.0216	-0.0734	-0.0433	-0.0296	0.0402	0.0118	-0.0306	-0.0676	-0.014	-0.0599	-0.0028	-0.0183	0.057	-0.0492	-0.0351	0.053	0.0408
COc1cccc(OCCCN)c1-c1cc(Nc2cnc(C#N)cn2)n[nH]1 [Prexasertib] + C=CCn1c(=O)c2cnc(Nc3ccc(N4CCN(C)CC4)cc3)nc2n1-c1cccc(C(C)(C)O)n1 [AZD1775] (first compound max 1 µM, partner max 1 µM)	0.874	0.584	0.0816	0.0366	-0.0247	0.0059	-0.131	0.0352	0.0873	0.0775	-0.0341	0.045	0.0023	0.0615	0.144	0.0716	0.0218	0.031	0.0697	0.146
Cc1c2c(nn1C)CSCc1cc(n(C)n1)CSc1cc(c3ccccc3c1)OCCCc1c(C(=O)O)n(C)c3c-2c(Cl)ccc13 [AZD5991] + C[C@@H](Nc1cc(F)cc(F)c1)c1cc(C(=O)N(C)C)cc2c(=O)cc(N3CCOCC3)oc12 [AZD8186] (first compound max 1 µM, 7x7, partner max 3 µM)	0.556	0.511	0.0515	-0.0264	-0.0001	0.0127	0.0503	-0.0003	0.0193	0.0375	-0.0261	-0.0218	-0.0239	-0.0528	-0.0214	0.0026	-0.0122	0.0172	0.015	0.0182
COc1cccc(OCCCN)c1-c1cc(Nc2cnc(C#N)cn2)n[nH]1 [Prexasertib] + O=C(c1cc(Cc2n[nH]c(=O)c3ccccc23)ccc1F)N1CCN(C(=O)C2CC2)CC1 [Olaparib] (first compound max 1 µM, 7x7, partner max 10 µM)	0.787	0.503	-0.0243	-0.0411	-0.103	-0.0407	-0.153	-0.0925	0.0154	-0.0247	-0.103	-0.0006	0.0066	-0.031	-0.018	-0.0432	-0.0412	-0.0514	0.0006	-0.004
COc1nnc2ccc(N3CCC(c4ccc(OCCN5CCN(C)C(=O)[C@H]5C)cc4)CC3)nn12 [AZD5153] + Cc1c2c(nn1C)CSCc1cc(n(C)n1)CSc1cc(c3ccccc3c1)OCCCc1c(C(=O)O)n(C)c3c-2c(Cl)ccc13 [AZD5991] (first compound max 1 µM, 7x7, partner max 1 µM)	0.835	0.507	0.0415	-0.0482	-0.0426	-0.0101	-0.0412	-0.0711	0.0492	-0.0001	-0.0488	0.0582	-0.0592	-0.0364	-0.0229	0.0352	-0.0164	0.003	-0.0787	0.052
CC1(C)CCC(CN2CCN(c3ccc(C(=O)NS(=O)(=O)c4ccc(NCC5CCOCC5)c([N+](=O)[O-])c4)c(Oc4cnc5[nH]ccc5c4)c3)CC2)=C(c2ccc(Cl)cc2)C1 [Venetoclax] + C1CN(CCC1(C(=O)N[C@@H](CCO)C2=CC=C(C=C2)Cl)N)C3=NC=NC4=C3C=CN4 [Capivasertib] (first compound max 1 µM, 7x7, partner max 3 µM)	0.415	0.373	-0.0153	-0.028	-0.0227	-0.0357	-0.0097	-0.0059	0.0315	0.0474	-0.0523	0.03	-0.013	-0.0592	-0.0588	-0.0133	-0.0237	0.0236	-0.0206	0.0321
NC1(C(=O)N[C@@H](CCO)c2ccc(Cl)cc2)CCN(c2ncnc3[nH]ccc23)CC1 [Capivasertib] + CC(=O)c1c(C)c2cnc(Nc3ccc(N4CCNCC4)cn3)nc2n(C2CCCC2)c1=O [Palbociclib] (first compound max 10 µM, 7x7, partner max 10 µM)	0.462	0.477	0.025	-0.0272	-0.0236	-0.201	0.0468	-0.0055	-0.0002	-0.0164	-0.0523	-0.0354	-0.0271	0.0128	0.0237	-0.0745	-0.0033	-0.0612	-0.0425	0.0017
CC1(C)CCC(CN2CCN(c3ccc(C(=O)NS(=O)(=O)c4ccc(NCC5CCOCC5)c([N+](=O)[O-])c4)c(Oc4cnc5[nH]ccc5c4)c3)CC2)=C(c2ccc(Cl)cc2)C1 [Venetoclax] + Cc1cc2ncnn2cc1Nc1ncc2c(n1)n(C1CCOCC1)c(=O)n2C [AZD7648] (first compound max 1 µM, 7x7, partner max 10 µM)	0.209	0.244	-0.0061	-0.0514	-0.0733	-0.0363	0.0538	-0.0449	0.0142	0.0477	0.0103	0.0057	0.0426	-0.0339	-0.0599	-0.0314	-0.0485	0.0303	-0.022	0.0586
CC1(C)CCC(CN2CCN(c3ccc(C(=O)NS(=O)(=O)c4ccc(NCC5CCOCC5)c([N+](=O)[O-])c4)c(Oc4cnc5[nH]ccc5c4)c3)CC2)=C(c2ccc(Cl)cc2)C1 [Venetoclax] + C[C@@H]1COCCN1C2=NC(=NC(=C2)C3(CC3)[S@](=N)(=O)C)C4=C5C=CNC5=NC=C4 [AZD6738] (first compound max 1 µM, 7x7, partner max 10 µM)	0.581	0.587	-0.006	-0.0365	-0.0587	-0.0242	-0.0508	-0.0549	0.0382	-0.006	-0.031	0.0694	-0.0373	-0.0601	0.0001	-0.0423	-0.0222	0.0739	0.106	0.0413
COc1cccc(OCCCN)c1-c1cc(Nc2cnc(C#N)cn2)n[nH]1 [Prexasertib] + CCc1c2c(nc3ccc(O)cc13)-c1cc3c(c(=O)n1C2)COC(=O)[C@]3(O)CC [SN-38] (first compound max 1 µM, 7x7, partner max 0.3 µM)	0.983	0.92	0	-0.0247	-0.011	-0.111	-0.0001	-0.0165	-0.0075	-0.0107	-0.0952	-0.007	-0.0465	-0.116	-0.015	0.0876	0.0088	0.0354	-0.0262	-0.0269
